In patent US10751802B1, “Method of producing silver nanoparticles using red sand” (KING SAUD UNIVERSITY, priority 2019, dated 2020):

How the values were obtained:
[1] = tested on: S. aureus; experiment: combination effect of silver nanoparticles with antibiotic discs; type: cell-based, Staphylococcus aureus; conditions: antibiotic disc alone; RD 5 μg, E 15 μg, TOB 10 μg, TGC 15 μg, MXF 5 μg, LEV 5 μg; Mueller-Hinton agar, 24 hours at 37° C.
Description: (§1) Moreover, combination effects were determined by first adjusting the turbidity of the previously mentioned bacterial strains to 0.5 MacFarland standards (10^8 CFU/mL), and swabbing the strains on Mueller-Hinton agar. Antibiotic discs alone were used as controls, respectively. […] To study the combination effect, 30 μl of the exemplary silver nanoparticles were loaded on the antibiotics discs then placed on the swabbed medium. The plates were incubated for 24 hours at 37° C. The diameters of the inhibition zones were measured and reported in millimeters.

[2] = tested on: P. vulgaris; experiment: as above; type: cell-based, Proteus vulgaris; conditions: antibiotic disc alone; F 100 μg, FOS 50 μg, TE 30 μg, FEP 30 μg, MXF 5 μg, LEV 5 μg; Mueller-Hinton agar, 24 hours at 37° C.
Description: as §1

[3] = tested on: A. baumannii; experiment: as above; type: cell-based, Acinetobacter baumannii; conditions: antibiotic disc alone; F 100 μg, FOS 50 μg, TE 30 μg, FEP 30 μg, MXF 5 μg, LEV 5 μg; Mueller-Hinton agar, 24 hours at 37° C.
Description: as §1

[4] = tested on: S. typhimurium; experiment: as above; type: cell-based, Salmonella typhimurium; conditions: antibiotic disc alone; F 100 μg, FOS 50 μg, TE 30 μg, FEP 30 μg, MXF 5 μg, LEV 5 μg; Mueller-Hinton agar, 24 hours at 37° C.
Description: as §1

[5] = tested on: E. coli; experiment: as above; type: cell-based, Escherichia coli; conditions: antibiotic disc alone; F 100 μg, FOS 50 μg, TE 30 μg, FEP 30 μg, MXF 5 μg, LEV 5 μg; Mueller-Hinton agar, 24 hours at 37° C.
Description: as §1

[6] = tested on: P. aeruginosa; experiment: as above; type: cell-based, Pseudomonas aeruginosa; conditions: antibiotic disc alone; F 100 μg, FOS 50 μg, TE 30 μg, FEP 30 μg, MXF 5 μg, LEV 5 μg; Mueller-Hinton agar, 24 hours at 37° C.
Description: as §1

[7] = tested on: Proteus vulgaris (ATCC 49132); experiment: agar well diffusion assay, inhibition zone; type: cell-based; conditions: standard antibiotic disc AMC (30), control
Description: (§2) Antibacterial activity of the exemplary silver nanoparticles, prepared as described above (except that centrifuging and drying were omitted, i.e., antimicrobial testing was performed without removing the silver nanoparticles from the red sand extract), was evaluated against pathogenic bacterial reference strains of Acinetobacter baumannii (ATCC 19606), Salmonella typhimurium (ATCC 14028), Escherichia coli (ATCC 35218), Pseudomonas aeruginosa (27853 AT), Staphylococcus aureus (25923 AT) and Proteus vulgaris (ATCC 49132) using an agar well diffusion assay. In particular, the antibacterial activity against each strain was determined by measuring the inhibition zone. Standard antibiotic discs, including Gentamycin (CN10 μg), Augmantin (AMC 30 μg), and Ciprofloxacin (CIP 5 μg), were used as controls.

[8] = tested on: Staphylococcus aureus (25923 AT); experiment: agar well diffusion assay, inhibition zone; type: cell-based; conditions: standard antibiotic disc CN (10), control
Description: as §2

[9] = tested on: Salmonella typhimurium (ATCC 14028); experiment: agar well diffusion assay, inhibition zone; type: cell-based; conditions: standard antibiotic disc CN (10), control
Description: as §2

[10] = tested on: Acinetobacter baumannii (ATCC 19606); experiment: agar well diffusion assay, inhibition zone; type: cell-based; conditions: standard antibiotic disc CIP (5), control
Description: as §2

[11] = tested on: Escherichia coli (ATCC 35218); experiment: agar well diffusion assay, inhibition zone; type: cell-based; conditions: standard antibiotic disc CIP (5), control
Description: as §2

[12] = tested on: Pseudomonas aeruginosa (27853 AT); experiment: agar well diffusion assay, inhibition zone; type: cell-based; conditions: standard antibiotic disc CIP (5), control
Description: as §2

Molecule	C: inhibition zone of the antibiotic alone as a control [1]	C: inhibition zone of the antibiotic alone as a control [2]	C: inhibition zone of the antibiotic alone as a control [3]	C: inhibition zone of the antibiotic alone as a control [4]	C: inhibition zone of the antibiotic alone as a control [5]	C: inhibition zone of the antibiotic alone as a control [6]	other results
NC[C@H]1O[C@H](O[C@H]2[C@H](O)[C@@H](O[C@H]3O[C@H](CO)[C@@H](O)[C@H](N)[C@H]3O)[C@H](N)C[C@@H]2N)[C@H](N)C[C@@H]1O [Tobramycin]	26 mm						
CN(C)c1cc(NC(=O)CNC(C)(C)C)c(O)c2c1C[C@H]1C[C@H]3[C@H](N(C)C)C(O)=C(C(N)=O)C(=O)[C@@]3(O)C(O)=C1C2=O [Tigecycline]	24 mm						
CO[C@H]1/C=C/O[C@@]2(C)Oc3c(C)c(O)c4c(O)c(c(/C=N/N5CCN(C)CC5)c(O)c4c3C2=O)NC(=O)/C(C)=C\C=C\[C@H](C)[C@H](O)[C@@H](C)[C@@H](O)[C@@H](C)[C@H](OC(C)=O)[C@@H]1C [Rifampicin]	34.5 mm						
O=C1CN(/N=C/c2ccc([N+](=O)[O-])o2)C(=O)N1 [Nitrofurantoin]		10 mm	11 mm	23.5 mm	21.5 mm		
CO/N=C(\C(=O)N[C@@H]1C(=O)N2C(C(=O)[O-])=C(C[N+]3(C)CCCC3)CS[C@H]12)c1csc(N)n1 [Cefepime]				23.5 mm		11 mm	
C[C@H]1COc2c(N3CCN(C)CC3)c(F)cc3c(=O)c(C(=O)O)cn1c23 [Levofloxacin]	27 mm	33 mm	23 mm	30 mm	35 mm	27 mm	
C[C@@H]1O[C@@H]1P(=O)(O)O [Fosfomycin]		11 mm	10 mm	20.5 mm	24 mm	27 mm	
CC[C@H]1OC(=O)[C@H](C)[C@@H](O[C@H]2C[C@@](C)(OC)[C@@H](O)[C@H](C)O2)[C@H](C)[C@@H](O[C@@H]2O[C@H](C)C[C@H](N(C)C)[C@H]2O)[C@](C)(O)C[C@@H](C)C(=O)[C@H](C)[C@@H](O)[C@]1(C)O [Erythromycin]	32 mm						
Augmantin [AMC]							Diameter of inhibition zone, standard antibiotic disc [7]: AMC (30) = 32 mm
Gentamycin [CN]							Diameter of inhibition zone, standard antibiotic disc [8]: CN (10) = 30 mm; Diameter of inhibition zone, standard antibiotic disc [9]: CN (10) = 24 mm
CN(C)[C@@H]1C(O)=C(C(N)=O)C(=O)[C@@]2(O)C(O)=C3C(=O)c4c(O)cccc4[C@@](C)(O)[C@H]3C[C@@H]12 [Tetracycline]		11. mm	11.5 mm	18 mm	17 mm	11.5 mm	
O=C(O)c1cn(C2CC2)c2cc(N3CCNCC3)c(F)cc2c1=O [CIP, Ciprofloxacin]							Diameter of inhibition zone, standard antibiotic disc [10]: CIP (5) = 25 mm; Diameter of inhibition zone, standard antibiotic disc [11]: CIP (5) = 33 mm; Diameter of inhibition zone, standard antibiotic disc [12]: CIP (5) = 31 mm
COc1c(N2C[C@@H]3CCCN[C@@H]3C2)c(F)cc2c(=O)c(C(=O)O)cn(C3CC3)c12 [Moxifloxacin]	33 mm	19. mm	20 mm	30 mm	31 mm	22.5 mm	
